Laboratory results: patent US9650369B2, “Anti-migration and anti-invasion thiazole analogs for treatment of cellular proliferative disease” (XAVIER UNIVERSITY OF LOUISIANA, priority 2012, dated 2017)

How the values were obtained:
[1] = antimigration efficacy of additional thiazole compounds (Table 3); format: cell-based; details: cell line not given; read-out: IC50 (anti-migration)
Source text: (§1) The additional thiazole compounds were synthesized and tested for antimigration efficacy and cytotoxicity, with results shown in TABLE 3.

[2] = cytotoxicity of additional thiazole compounds (Table 3); format: cell-based; details: cell line not given
Source text: as §1

Structure (SMILES) | IC50 [1] | Cytotoxicity (Survival at 1 μM) [2]
Cc1csc(NC(=O)c2ccccc2)n1 [Compound 14a, N-(4-Methylthiazol-2-yl)benzamide] | 12 µM | 103.1%
O=C(Nc1nc(-c2ccccc2Cl)cs1)c1ccccc1 [Compound 14b, N-(4-(2-Chlorophenyl)thiazol-2-yl)benzamide] | 15 µM | 102.4%
O=C(Nc1nc(-c2cccc(Br)c2)cs1)c1ccccc1 [Compound 14c, N-(4-(3-Bromophenyl)thiazol-2-yl)benzamide] | 10 µM | 78.0%
O=C(Nc1nc(-c2ccc(Br)cc2)cs1)c1ccccc1 [Compound 14d, N-(4-(4-Bromophenyl)thiazol-2-yl)benzamide] | 9.5 µM | 82.2%
O=C(Nc1nc(-c2cccc(Cl)c2)cs1)c1ccccc1 [Compound 14e, N-(4-(3-Chlorophenyl)thiazol-2-yl)benzamide] | 0.123 µM | 71.4%
O=C(Nc1nc(-c2cc(C(F)(F)F)cc(C(F)(F)F)c2)cs1)c1ccccc1 [Compound 14f, N-(4-(3,5-Bis(trifluoromethyl)phenyl)thiazol-2-yl)benzamide] | 0.336 µM | 85.8%
COc1cc(-c2csc(NC(=O)c3ccccc3)n2)cc(OC)c1OC [Compound 14g, N-(4-(3,4,5-Trimethoxyphenyl)thiazol-2-yl)benzamide] | > 50 µM | 95.0%
Cc1sc(NC(=O)c2ccccc2)nc1-c1ccccc1 [Compound 14h, N-(5-Methyl-4-phenylthiazol-2-yl)benzamide] | > 25 µM | 99.0%
Cc1sc(NC(=O)c2ccccc2)nc1-c1ccc(F)cc1 [Compound 14i, N-(4-(4-Fluorophenyl)-5-methylthiazol-2-yl)benzamide] | 9.1 µM | 53.7%
Cc1ccc(-c2cnc(NC(=O)c3ccccc3)s2)cc1 [Compound 14j, N-(5-(p-Tolyl)thiazol-2-yl)benzamide] | 0.308 µM | 55.6%
COc1ccc(C(=O)Nc2nc(-c3cc(OC)c(OC)c(OC)c3)cs2)cc1 [Compound 14k, 4-Methoxy-N-(4-(3,4,5-trimethoxyphenyl)thiazol-2-yl)benzamide] | > 25 µM | 93.8%
COc1cc(-c2csc(NC(=O)c3ccc(Cl)cc3)n2)cc(OC)c1OC [Compound 14l, 4-Chloro-N-(4-(3,4,5-trimethoxyphenyl)thiazol-2-yl)benzamide] | > 25 µM | 85.6%
COc1ccc(C(=O)Nc2nc(-c3cc(OC)c(OC)c(OC)c3)cs2)cc1OC [Compound 14m, 3,4-Dimethoxy-N-(4-(3,4,5-trimethoxyphenyl)thiazol-2-yl)benzamide] | > 25 µM | 87.3%
COc1ccc(C(=O)Nc2nc(-c3cc(OC)c(OC)c(OC)c3)cs2)c(OC)c1 [Compound 14n, 2,4-Dimethoxy-N-(4-(3,4,5-trimethoxyphenyl)thiazol-2-yl)benzamide] | > 50 µM | 93.8%
COc1cc(C(=O)Nc2nc(-c3cc(OC)c(OC)c(OC)c3)cs2)cc(OC)c1OC [Compound 14o, 3,4,5-Trimethoxy-N-(4-(3,4,5-trimethoxyphenyl)thiazol-2-yl)benzamide] | 1.03 µM | 77.6%
COc1cc(-c2csc(NC(=O)c3cccc(OC)c3OC)n2)cc(OC)c1OC [Compound 14p, 2,3-Dimethoxy-N-(4-(3,4,5-trimethoxyphenyl)thiazol-2-yl)benzamide] | 15 µM | 90.1%
COc1ccccc1C(=O)Nc1nc(-c2cc(OC)c(OC)c(OC)c2)cs1 [Compound 14q, 2-Methoxy-N-(4-(3,4,5-trimethoxyphenyl)thiazol-2-yl)benzamide] | 8.5 µM | 103.7%
